Measured values taken from ChEMBL document CHEMBL1201862, “PubChem BioAssay data set” (2004).
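Protocol summary: plate cells (96-well), add compound at 5 concentrations, incubate 48 h, interpolate endpoints linearly. Abbreviation: GI50, concentration required for 50% inhibition of growth.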 Active and inactive are the calls of the source. Cut-off read from the data, not from the text of the source: active = GI50 up to about 1.1 µM and inactive = higher.

Tests used:
Test in all cases: growth of human tumour cells (NCI), 48 h
[1] = system: IGROV-1
[2] = system: EKVX
[3] = system: SF-295
[4] = system: RXF 393
[5] = system: NCI-H460
[6] = system: HT-29
[7] = system: MOLT-4
[8] = system: OVCAR-4
[9] = system: SNB-19
[10] = system: COLO 205
[11] = system: OVCAR-3
[12] = system: OVCAR-5
[13] = system: HOP-62
[14] = system: NCI-H23
[15] = system: SF-539
[16] = system: CCRF-CEM

Measured: GI50

Cc1ccc(NC(=O)CC/C(CC(=O)C(C)(C)C)=N/NC(=O)C[N+](C)(C)C)cc1C
inactive: [1] > 100 µM | [2] > 100 µM | [3] > 100 µM | [4] > 100 µM | [5] > 100 µM | [6] > 100 µM | [7] > 100 µM | [8] > 100 µM | [9] > 100 µM | [10] > 100 µM | [11] > 100 µM | [12] > 100 µM | [13] > 100 µM | [14] > 100 µM | [15] 18.6 µM | [16] > 100 µM

C[C@@H](NC1CCC[C@H]1O)c1ccccc1 (stereo partly drawn)
inactive: [1] > 100 µM | [2] > 100 µM | [3] > 100 µM | [4] > 100 µM | [5] > 100 µM | [6] > 100 µM | [7] > 100 µM | [8] > 100 µM | [9] > 100 µM | [10] > 100 µM | [11] > 100 µM | [12] > 100 µM | [13] > 100 µM | [16] > 100 µM

CCOP(=O)(OCC)C1CCCCOC1=O (stereo not drawn)
inactive: [1] > 100 µM | [2] > 100 µM | [3] > 100 µM | [4] > 100 µM | [5] 51.2 µM | [6] > 100 µM | [7] 33 µM | [8] > 100 µM | [9] > 100 µM | [10] > 100 µM | [11] > 100 µM | [13] > 100 µM | [14] > 100 µM | [15] > 100 µM | [16] 76.7 µM

CCN(CC)CCCC(C)Nc1ccnc2ccc3nn(C)nc3c12 (stereo not drawn)
inactive: [1] > 100 µM | [2] > 100 µM | [3] 44.7 µM | [5] 32.8 µM | [6] 26.5 µM | [7] 25.3 µM | [9] > 100 µM | [10] 28.6 µM | [12] > 100 µM | [13] 76.6 µM | [14] > 100 µM | [15] 37.8 µM | [16] 25.1 µM

COC(=O)C12C(=O)O[C@H](C)C1(O)C(C)C(=O)N2C (stereo partly drawn)
inactive: [1] > 100 µM | [2] > 100 µM | [3] > 100 µM | [4] > 100 µM | [6] > 100 µM | [7] > 100 µM | [8] > 100 µM | [9] > 100 µM | [10] > 100 µM | [11] > 100 µM | [12] > 100 µM | [13] > 100 µM | [14] > 100 µM | [15] > 100 µM

CP1(=O)CCCCC1
inactive: [1] > 100 µM | [2] > 100 µM | [3] > 100 µM | [4] > 100 µM | [5] > 100 µM | [6] > 100 µM | [7] > 100 µM | [8] > 100 µM | [9] > 100 µM | [10] > 100 µM | [11] > 100 µM | [12] > 100 µM | [13] > 100 µM | [14] > 100 µM | [15] > 100 µM | [16] > 100 µM

Cn1c2c(c3ccccc31)C1CCCCC1C1C(=O)NC(=O)C21 (stereo not drawn)
inactive: [1] > 100 µM | [2] 32.8 µM | [3] 57.7 µM | [4] 32.4 µM | [5] 34.8 µM | [6] 33.1 µM | [7] 21.8 µM | [8] 56.5 µM | [9] > 100 µM | [10] 39.9 µM | [11] 17 µM | [12] > 100 µM | [14] > 100 µM | [15] 80.7 µM | [16] 36.6 µM
